The record followed here is patent US4002623A, “Anti-inflammatory 1-[3-(dialkylamino)propyl]-2-acylaminobenzimidazoles and 2-acylamino-3-[3-(dialkylamino)-propyl]imidazo[4,5-b]pyridines” (Pfizer Inc., priority 1974, dated 1977).

Read-outs that look alike come from different tables or passages of the source.

The experiment in a line: adjuvant arthritis screen (Walz et al.), swelling of the non-injected left hind foot on Day 16. It is filed as in vivo, male inbred Lewis rats. Particulars: Rattus norvegicus, 384 h, daily day -1 through day 15, read-out: Activity Percent Inhibition; for inhibition in vivo at 20 mg/kg: 20 mg./kg. po; for inhibition in vivo at 33 mg/kg: 33 mg./kg. ip. An excerpt: The adjuvant arthritis test described by Walz et al., Ann. Rheum. Dis., 30, 303 (1971) was selected as the method of choice for the determination of the extent of which the novel compounds of the present invention are therapeutically effective as anti-inflammatory agents. Adjuvant arthritis is a crippling deformity in rats resulting from diffuse connective tissue involvement. It is considered by some authorities to be the best available experimental animal model of human rheumatoid arthritis because of its strong clinical and pathological similarities to the human disease and because it can be effectively treated with known anti-arthritic drugs. In this test, lesions resembling those of human rheumatoid arthritis are induced by the injection of complete Freund's adjuvant into one hind leg of a rat. A vigorous inflammatory response occurs in the injected hind leg and reaches its greatest size in about four days. This primary response is followed by the development of a second inflammatory response, appearing about 12-16 days post-injection, that occurs in the uninjected hind leg. While the compounds of the invention are capable of inhibiting the degree of inflammation in both legs, the inhibition of swelling in the uninjected leg at 16 days is considered to be the more meaningful measure of antiarthritic activity.
The adjuvant arthritis screen as described by Walz et al. (Ann. Rheum. Dis., 30: 303 (1971), was used to evaluate the above prepared compounds.
The screen is conducted using male inbred Lewis rats weighing approximately 250 gm. The animals are dosed with drug beginning on day- 1 and continuing daily through day 15. On Day 0, the subplanter surface of the right hind paw is injected with 0.1cc of a 1% suspension of Mycobacterium butyricum (Freunds adjuvant) in Primol (Esso). The swelling of the non-injected left hind foot on Day 16, resulting from immune response to adjuvant, was determined for dosed animals and controls. The foot volume is measured by immersing the paw to the anatomical hairline into a mercury reservoir which is connected to a Statham pressure transducer and a recording device. The results are expressed as % inhibition calculated according to the following equation: [formula] The results obtained are as follows for [drawing 22] where Z is --N(CH3)2 and X is carbon: […]

With `COc1ccc(C(=O)Nc2nc3ccccc3n2CCCN2CCN(Cc3ccccc3)CC2)cc1` [4-Methoxyphenyl; H; H; drawing 27], the inhibition in vivo at 10 mg/kg (10 mg./kg. ip) amounted to 32%. Take `COc1ccc(C(=O)Nc2nc3cc(S(=O)(=O)N(C)C)ccc3n2CCCN2CCN(C)CC2)cc1` [4-Methoxyphenyl; SO2 N(CH3)2; H; drawing 24]: the inhibition in vivo at 20 mg/kg stood at 27%. Consider `CN1CCN(CCCn2c(NC(=O)c3ccc(C(F)(F)F)cc3)nc3cc(C(F)(F)F)ccc32)CC1` [4-Trifluoromethylphenyl; CF3; H; drawing 24], for which the inhibition in vivo at 33 mg/kg came out at 71%. Besides, the inhibition in vivo at 10 mg/kg (10 mg./kg. po) came out at 28%. As for `Cc1ccc2c(c1)nc(NC(=O)c1ccc(C(F)(F)F)cc1)n2CCCN1CCN(C)CC1` [4-Trifluoromethylphenyl; CH3; H; drawing 24], the inhibition in vivo at 20 mg/kg turned out to be 35%. `CN1CCN(CCCn2c(NC(=O)c3ccc(C(F)(F)F)cc3)nc3cc(Cl)ccc32)CC1` [4-Trifluoromethylphenyl; Cl; H; drawing 24, 1-[3-(4-methyl-1-piperazinyl)propyl]-2-(4-trifluoromethylbenzamido)-5-chlorobenzimidazole]: the inhibition in vivo at 33 mg/kg was found to be 72%. For the same compound, where the note is “10 mg./kg. po”, the inhibition in vivo at 10 mg/kg came out at 38%. For the compound `Cc1ccc2nc(NC(=O)c3ccc(C(F)(F)F)cc3)n(CCCN3CCN(C)CC3)c2c1` [4-Trifluoromethylphenyl; H; CH3; drawing 24], the inhibition in vivo at 20 mg/kg was determined as 50%. `O=C(Nc1nc2ccccc2n1CCCN1CCOCC1)c1ccc(C(F)(F)F)cc1` [4-Trifluoromethylphenyl; H; H; drawing 23]: the inhibition in vivo at 33 mg/kg is 35%.

`CN1CCN(CCCn2c(NC(=O)c3ccc(C(F)(F)F)cc3)nc3ccccc32)CC1` [4-Trifluoromethylphenyl; H; H; drawing 24]: the inhibition in vivo at 20 mg/kg came out at 51% and the inhibition in vivo at 33 mg/kg is 77%. `CN1CCN(CCCn2c(NC(=O)c3ccc(C(F)(F)F)cc3)nc3cccnc32)CC1` [4-Trifluoromethylphenyl; H; H; drawing 25]: the inhibition in vivo at 20 mg/kg was found to be 14%. In the case of `O=C(Nc1nc2ccccc2n1CCCN1CCCCC1)c1ccc(C(F)(F)F)cc1` [4-Trifluoromethylphenyl; H; H; drawing 26, 1-[3-(1-piperidinyl)propyl]-2-(4-trifluoromethylbenzamido)benzimidazole], the inhibition in vivo at 33 mg/kg was found to be 79%. In the case of `O=C(Nc1nc2ccccc2n1CCCN1CCN(Cc2ccccc2)CC1)c1ccc(C(F)(F)F)cc1` [4-Trifluoromethylphenyl; H; H; drawing 27, 2-(4-trifluoromethylbenzamido)-1-[3-(4-benzyl-1-piperazinyl)-propyl]benzimidazole], where the note is “10 mg./kg. ip”, the inhibition in vivo at 10 mg/kg is 47%. For the compound `O=C(Nc1nc2ccccc2n1CCCN1CCNCC1)c1ccc(C(F)(F)F)cc1` [4-Trifluoromethylphenyl; H; H; drawing 28, 2-(4-trifluoromethylbenzamido)-1-[3-(1-piperazinyl)propyl]benzimidazole], for the setting “10 mg./kg. ip”, the inhibition in vivo at 10 mg/kg was 28%. With `COc1ccc2c(c1)nc(NC(=O)c1ccc(C(F)(F)F)cc1)n2CCCN1CCN(C)CC1` [4-Trifluoromethylphenyl; OCH3; H; drawing 24], the inhibition in vivo at 33 mg/kg worked out at 69%.

For the compound `CN1CCN(CCCn2c(NC(=O)c3ccc(C(C)(C)C)cc3)nc3ccccc32)CC1` [4-t-Butylphenyl; H; H; drawing 24], the inhibition in vivo at 33 mg/kg came to 26%.

On to `CC(C)(C)CC(=O)Nc1nc2ccccc2n1CCCN1CCOCC1` [(CH3)3 CCH2; H; H; drawing 23], for which the inhibition in vivo at 33 mg/kg was determined as 13%. On to `CCCCCCCCCC(=O)Nc1nc2ccccc2n1CCCN1CCN(C)CC1` [CH3 (CH2)8; H; H; drawing 24], for which the inhibition in vivo at 20 mg/kg amounted to 45%.

Regarding `COCC(=O)Nc1nc2ccccc2n1CCCN(C)C` [CH3 OCH2; H; H; Z = N(CH3)2], the inhibition in vivo at 33 mg/kg was determined as 32%. Consider `COCC(=O)Nc1nc2ccccc2n1CCCN1CCOCC1` [CH3 OCH2; H; H; drawing 23], for which the inhibition in vivo at 33 mg/kg is 21%.

For the compound `CN1CCN(CCCn2c(NC(=O)C3CCC3)nc3ccccc32)CC1` [Cyclobutyl; H; H; drawing 24], the inhibition in vivo at 33 mg/kg is 34%. On to `O=C(Nc1nc2ccccc2n1CCCN1CCCCC1)c1ccco1` [Furyl; H; H; drawing 26], for which the inhibition in vivo at 33 mg/kg was determined as 12%. On the same count and under the same terms, next, `CN1CCN(CCCn2c(NC(=O)c3ccccc3)nc3cc(C(F)(F)F)ccc32)CC1` [Phenyl; CF3; H; drawing 24]: 29%.

Consider `Cc1cc2nc(NC(=O)c3ccccc3)n(CCCN3CCN(C)CC3)c2cc1C` [Phenyl; CH3; CH3; drawing 24, 1-[3-(4-methyl-1-piperazinyl)propyl]-2-benzamido-5,6-dimethylbenzimidazole], for which the inhibition in vivo at 20 mg/kg was found to be 31%. Regarding `CN1CCN(CCCn2c(NC(=O)c3ccccc3)nc3cc(Cl)ccc32)CC1` [Phenyl; Cl; H; drawing 24], the inhibition in vivo at 33 mg/kg amounted to 41%. Turning to `Cc1ccc2nc(NC(=O)c3ccccc3)n(CCCN3CCN(C)CC3)c2c1` [Phenyl; H; CH3; drawing 24], the inhibition in vivo at 20 mg/kg is 23%. For `CN(C)CCCn1c(NC(=O)c2ccccc2)nc2ccccc21` [Phenyl; H; H; Z = N(CH3)2], the inhibition in vivo at 33 mg/kg was 8%. As to `O=C(Nc1nc2ccccc2n1CCCN1CCOCC1)c1ccccc1` [Phenyl; H; H; drawing 23], the inhibition in vivo at 33 mg/kg amounted to 15%. With `O=C(Nc1nc2ccccc2n1CCCN1CCN(Cc2ccccc2)CC1)c1ccccc1` [Phenyl; H; H; drawing 27], the inhibition in vivo at 10 mg/kg (10 mg./kg. ip) amounted to 44%. For the compound `O=C(Nc1nc2ccccc2n1CCCN1CCNCC1)c1ccccc1` [Phenyl; H; H; drawing 28], the inhibition in vivo at 10 mg/kg (10 mg./kg. ip) came out at 19%. `COc1ccc2c(c1)nc(NC(=O)c1ccccc1)n2CCCN1CCN(C)CC1` [Phenyl; OCH3; H; drawing 24]: the inhibition in vivo at 33 mg/kg came out at 27%. `CN1CCN(CCCn2c(NC(=O)c3ccccc3)nc3cc(S(=O)(=O)N(C)C)ccc32)CC1` [Phenyl; SO2 N(CH3)2; H; drawing 24]: the inhibition in vivo at 20 mg/kg is 32%. On to `O=C(C=Cc1ccccc1)Nc1nc2ccccc2n1CCCN1CCCCC1` [Styryl; H; H; drawing 26], for which the inhibition in vivo at 33 mg/kg stood at 33%. Same read-out and setting: next, `CN1CCN(CCCn2c(NC(=O)c3ccc(-c4ccccc4)cc3)nc3ccccc32)CC1` [p-Phenylphenyl; H; H; drawing 24]: 46%.
